Measurements published in PubChem BioAssay AID2060898 (Molecular Pharmacology Branch, DTP, NCI, 2025).
Where “and” joins values, the source holds several entries; their conditions need not be identical. Identical values can stand only once.

Tested on: 616215-338-R-J1-PDC complex spheroid viability
Assay: Anticancer human tumor 616215-338-R-J1-PDC patient-derived colon adenocarcinoma cell line growth inhibition [RAS]
Conditions: for viability, T/C: stronger effect = lower value
Excerpt: RAS pathway inhibitors in Combinations in Complex Spheroids
A high-throughput screen of multi-cell type tumor spheroids was designed to identify active combinations of RAS pathway inhibitors and targeted small molecules. Complex spheroids include a stromal component modeled by human endothelial cells (HUVEC) and fibroblasts modeled by human mesenchymal stem cells (MSCs). The concentration ranges selected for each drug and investigational agent were based upon clinically achievable concentrations if the clinical Cmax of the agent was known.
Compounds. The drugs and investigational agents: abemaciclib (NSC768073), cobimetinib (NSC768068), divarasib (GDC6063, NSC841802), docetaxel (NSC628503), GDC-1971 (RLY-1971, NSC841576), gemcitabine (NSC613327), inavolisib (NSC800729), ipatasertib (NSC767898), KB-0742 (NSC834161), MRTX-1133 (NSC836407), osimertinib (NSC779217), RMC-4630 (NSC839698), RMC-6236 (NSC851965), RMC-6291 (NSC852671), Ro-3306 (NSC812927), sapanisertib (NSC764658), SN-38 (NSC673596), staurosporine (NSC755774), SY5609 (NSC837396), and tovorafenib (DAY101, NSC766906), were obtained from the National Cancer Institute (NCI) Developmental Therapeutics Program Chemical Repository. The FDA-approved anticancer drug set is available from the NCI Developmental Therapeutics Program. […] The stock solutions were prepared in dimethyl sulfoxide (DMSO, Sigma-Aldrich, St. Louis, MO, cat. D2650) at 800-fold the tested concentration and stored at -70 degrees C prior to their use. All drugs and investigational agents were tested over a range starting from a high concentration at or near the clinical Cmax and decreasing in half-log increments. If the clinical Cmax for an agent had not been determined, the highest concentration tested was 10 microM.
Cell Culture. All cells were maintained in an incubator at 37 degrees C and 5% CO2 with 95% humidity. The PDC lines were cultured according to standard operating procedures established by the NCI PDMR. All PDCs were thawed and cultured in Matrigel-coated flasks prepared with a working solution of 1X Ham's F-12 nutrient mix, without supplementation (Invitrogen, Waltham, MA, cat. 11765054), 100 U/mL penicillin-streptomycin (Invitrogen, cat. 15140122), and 2.5% Matrigel (Corning Inc., Corning, NY, cat. 354248) for the first three passages. The 362531-283-R-J2-PDC and 782815-120-R-J1-PDC lines were cultured in 6C/Colon 1B media, which includes advanced DMEM/F-12 (Thermo Fisher Scientific, cat. 12634028), 10 mM HEPES (Thermo Fisher Scientific, cat. 15630080), 1X GlutaMAX supplement (Thermo Fisher Scientific, cat. 35050061), 0.1 mg/mL primocin (InvivoGen, San Diego, CA, cat. ant-pm-2), 10% defined fetal bovine serum, heat inactivated (HyClone Laboratories Inc., Logan, UT, cat. SH30070.03HI), 50% L-WRN conditioned media (ATCC, cat. CRL-3276), 1.25 mM N-Acetyl-L-cysteine (Sigma-Aldrich, cat. A9165), 10 mM nicotinamide (Sigma-Aldrich, cat. N0636), 1X B-27 supplement (Thermo Fisher Scientific, cat. 17504044), 1X N-2 supplement (Thermo Fisher Scientific, cat. 17502048), 50 ng/mL human EGF (Thermo Fisher Scientific, cat. PHG0311), and 10 microM Y-27632 dihydrochloride (Tocris Bioscience, cat. 1254). The K12877-001-R-J1-PDC line was cultured in 6I media, which includes all 6C/Colon 1B media plus 10 ng/mL human FGF-10 (PeproTech, cat. 100-26), 1 ng/mL human FGF-2 (PeproTech, cat. 100-18B), 1 µM prostaglandin E2 (Tocris Bioscience, cat. 2296), […] hydrocortisone (Sigma-Aldrich, cat. H4001), and […] bovine insulin (Sigma-Aldrich, cat. I6634). The K86415-001-R-J1-PDC line was cultured in 6D media, which includes all 6C/Colon 1B media components minus the L-WRN conditioned media. The 485176-168-R4-J1-PDC was cultured in PANC media, which includes all 6C/Colon 1B media plus 100 ng/mL human FGF-10 (PeproTech, cat. 100-26), 500 nM SB-431542 (Selleckchem, cat. S1067), and 10 nM gastrin (Tocris Bioscience, cat. 3006). […]

[1] = curve of first compound, second compound 0.0316 µM
[2] = curve of first compound, second compound 0.1 µM
[3] = curve of first compound, second compound 0.316 µM
[4] = curve of first compound, second compound 1 µM
[5] = curve of first compound, second compound 3.16 µM
[6] = curve of first compound, second compound 10 µM
[7] = second compound 0.0316 µM, first compound 0.00316 µM
[8] = second compound 0.0316 µM, first compound 0.01 µM
[9] = second compound 0.0316 µM, first compound 0.0316 µM
[10] = second compound 0.0316 µM, first compound 0.1 µM
[11] = second compound 0.0316 µM, first compound 0.316 µM
[12] = second compound 0.0316 µM, first compound 1 µM
[13] = second compound 0.1 µM, first compound 0.00316 µM
[14] = second compound 0.1 µM, first compound 0.01 µM
[15] = second compound 0.1 µM, first compound 0.0316 µM
[16] = second compound 0.1 µM, first compound 0.1 µM
[17] = second compound 0.1 µM, first compound 0.316 µM
[18] = second compound 0.1 µM, first compound 1 µM
[19] = second compound 0.316 µM, first compound 0.00316 µM
[20] = second compound 0.316 µM, first compound 0.01 µM
[21] = second compound 0.316 µM, first compound 0.0316 µM
[22] = second compound 0.316 µM, first compound 0.1 µM
[23] = second compound 0.316 µM, first compound 0.316 µM
[24] = second compound 0.316 µM, first compound 1 µM
[25] = second compound 1 µM, first compound 0.00316 µM
[26] = second compound 1 µM, first compound 0.01 µM
[27] = second compound 1 µM, first compound 0.0316 µM
[28] = second compound 1 µM, first compound 0.1 µM
[29] = second compound 1 µM, first compound 0.316 µM
[30] = second compound 1 µM, first compound 1 µM
[31] = second compound 3.16 µM, first compound 0.00316 µM
[32] = second compound 3.16 µM, first compound 0.01 µM
[33] = second compound 3.16 µM, first compound 0.0316 µM
[34] = second compound 3.16 µM, first compound 0.1 µM
[35] = second compound 3.16 µM, first compound 0.316 µM
[36] = second compound 3.16 µM, first compound 1 µM
[37] = second compound 10 µM, first compound 0.00316 µM
[38] = second compound 10 µM, first compound 0.01 µM
[39] = second compound 10 µM, first compound 0.0316 µM
[40] = second compound 10 µM, first compound 0.1 µM
[41] = second compound 10 µM, first compound 0.316 µM
[42] = second compound 10 µM, first compound 1 µM
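Further: spheroids exposed to agents for seven days before viability readout.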
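Wherever viability, T/C is given: 100% = DMSO vehicle control viability.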

CC(=O)OC12COC1CC(O)C1(C)C(=O)C(O)C3=C(C)C(OC(=O)C(O)C(NC(=O)OC(C)(C)C)c4ccccc4)CC(O)(C(OC(=O)c4ccccc4)C21)C3(C)C (stereo not drawn)
viability, T/C (compound 0.0316 µM): 27.8% [middle of 4 runs] | viability, T/C (compound 0.1 µM): 21% [middle of 4 runs] | viability, T/C (compound 0.316 µM): 19.1% (2×) and 21.2% and 18.8% | viability, T/C (compound 1 µM): 21.3% [middle of 4 runs] | viability, T/C (compound 3.16 µM): 22.3% [middle of 4 runs] | viability, T/C (compound 10 µM): 28.5% [middle of 4 runs] | IC50 (curve of compound): < 0.0316 µM

Cc1nc(N2CCC3(CC2)COC(C)C3N)c(CO)nc1Sc1ccnc(N)c1Cl (stereo not drawn)
viability, T/C (compound 0.0316 µM): 105% (2×) and 103% and 97.3% | viability, T/C (compound 0.1 µM): 103% (2×) and 106% and 97.7% | viability, T/C (compound 0.316 µM): 109% [middle of 4 runs] | viability, T/C (compound 1 µM): 108% [middle of 4 runs] | viability, T/C (compound 3.16 µM): 86.9% [middle of 4 runs] | viability, T/C (compound 10 µM): 85.4% [middle of 4 runs] | IC50 (curve of compound): > 10 µM

NC1c2ccccc2OC12CCN(c1cnc3c(N4CCCc5ncccc54)n[nH]c3n1)CC2 (stereo not drawn)
viability, T/C (compound 0.0316 µM): 114% [middle of 4 runs] | viability, T/C (compound 0.316 µM): 92.2% [middle of 4 runs] | viability, T/C (compound 1 µM): 76.5% [middle of 4 runs] | viability, T/C (compound 10 µM): 55.8% [middle of 4 runs] | IC50 (curve of compound): > 10 µM and 3.16 µM and 6.76 µM

C=CC(=O)Nc1cc(Nc2nccc(-c3cn(C)c4ccccc34)n2)c(OC)cc1N(C)CCN(C)C + C#Cc1c(F)ccc2cc(O)cc(-c3ncc4c(N5CC6CCC(C5)N6)nc(OCC56CCCN5CC(F)C6)nc4c3F)c12
IC50 [1]: > 1 µM | IC50 [2]: > 1 µM | IC50 [3]: 0.846 µM | IC50 [4]: 0.587 µM | IC50 [5]: 0.15 µM | IC50 [6]: 0.15 µM | viability, T/C [7]: 101% | viability, T/C [8]: 109% | viability, T/C [9]: 101% | viability, T/C [10]: 106% | viability, T/C [11]: 98.1% | viability, T/C [12]: 68.4% | viability, T/C [13]: 106% | viability, T/C [14]: 108% | viability, T/C [15]: 104% | viability, T/C [16]: 110% | viability, T/C [17]: 115% | viability, T/C [18]: 74.5% | viability, T/C [19]: 114% | viability, T/C [20]: 110% | viability, T/C [21]: 109% | viability, T/C [22]: 109% | viability, T/C [23]: 93.2% | viability, T/C [24]: 42.7% | viability, T/C [25]: 112% | viability, T/C [26]: 109% | viability, T/C [27]: 117% | viability, T/C [28]: 82.4% | viability, T/C [29]: 75.5% | viability, T/C [30]: 31.4% | viability, T/C [31]: 104% | viability, T/C [32]: 124% | viability, T/C [33]: 79.8% | viability, T/C [34]: 59.6% | viability, T/C [35]: 42.2% | viability, T/C [36]: 35.9% | viability, T/C [37]: 67.2% | viability, T/C [38]: 71.2% | viability, T/C [39]: 62.2% | viability, T/C [40]: 56.5% | viability, T/C [41]: 39.4% | viability, T/C [42]: 21.7%

O=C(c1ccc(F)c(F)c1Nc1ccc(I)cc1F)N1CC(O)([C@@H]2CCCCN2)C1 + C#Cc1c(F)ccc2cc(O)cc(-c3ncc4c(N5CC6CCC(C5)N6)nc(OCC56CCCN5CC(F)C6)nc4c3F)c12
IC50 [1]: 0.0877 µM | IC50 [2]: 0.0754 µM | IC50 [3]: 0.0559 µM | IC50 [4]: 0.0305 µM | IC50 [5]: 0.019 µM | IC50 [6]: < 0.00316 µM | viability, T/C [7]: 112% | viability, T/C [8]: 98% | viability, T/C [9]: 83.8% | viability, T/C [10]: 47.4% | viability, T/C [11]: 12.5% | viability, T/C [12]: 5.72% | viability, T/C [13]: 114% | viability, T/C [14]: 112% | viability, T/C [15]: 85.1% | viability, T/C [16]: 39.3% | viability, T/C [17]: 10% | viability, T/C [18]: 6.39% | viability, T/C [19]: 124% | viability, T/C [20]: 111% | viability, T/C [21]: 73.6% | viability, T/C [22]: 25.3% | viability, T/C [23]: 13% | viability, T/C [24]: 5.14% | viability, T/C [25]: 115% | viability, T/C [26]: 96.3% | viability, T/C [27]: 44.3% | viability, T/C [28]: 24.3% | viability, T/C [29]: 8.74% | viability, T/C [30]: 5.44% | viability, T/C [31]: 75.3% | viability, T/C [32]: 64.9% | viability, T/C [33]: 36.6% | viability, T/C [34]: 23.4% | viability, T/C [35]: 7.41% | viability, T/C [36]: 3.17% | viability, T/C [37]: 48.8% | viability, T/C [38]: 35.3% | viability, T/C [39]: 24.3% | viability, T/C [40]: 14.4% | viability, T/C [41]: 1.94% | viability, T/C [42]: 1.77%
